Test results from publication PMC9264368, “Structural Analysis and Development of Notum Fragment Screening Hits” (ACS Chemical Neuroscience, 2022).
Converted amounts (≈) assume the structure as drawn. Like-named read-outs stand apart in the source and are kept apart here.

Assays:
[1] = set-up: method as in PMID 33124429; conditions: mouse; cited from earlier work
[2] = tested on: Wnt/β-catenin signaling in the presence of Notum; conditions: read-out: EC50, restoration of Wnt/β-catenin signaling, TCF/LEF reporter
[3] = tested on: Wnt/β-catenin signaling in the presence of Notum; set-up: method as in PMID 35536179; conditions: read-out: EC50, cell-based reporter (TCF/LEF) assay; cited from earlier work
[4] = set-up: method as in PMID 35536179; conditions: cited from earlier work
[5] = set-up: method as in PMID 35536179; conditions: mouse liver microsomes; cited from earlier work
[6] = set-up: method as in PMID 35536179; conditions: human liver microsomes; cited from earlier work
[7] = tested on: MDCK-MDR1; set-up: method as in PMID 35536179; conditions: cited from earlier work
[8] = molecular target: T1, Notum (Homo sapiens, UniProt Q6P988, C330S); assay: biochemical
T1 sequence (Q6P988 81-451 C330S): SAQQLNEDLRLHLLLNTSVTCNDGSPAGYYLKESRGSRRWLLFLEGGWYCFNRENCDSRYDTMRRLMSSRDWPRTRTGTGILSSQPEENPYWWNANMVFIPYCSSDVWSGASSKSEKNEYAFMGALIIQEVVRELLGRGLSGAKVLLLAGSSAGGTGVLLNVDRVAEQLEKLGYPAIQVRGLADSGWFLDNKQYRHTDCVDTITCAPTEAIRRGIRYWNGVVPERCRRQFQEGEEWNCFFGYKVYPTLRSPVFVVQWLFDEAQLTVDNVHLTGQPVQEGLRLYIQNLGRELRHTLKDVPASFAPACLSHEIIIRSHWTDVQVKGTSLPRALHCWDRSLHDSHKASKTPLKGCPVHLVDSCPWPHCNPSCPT

[9] = molecular target: T1, Notum; conditions: for LE (ligand efficiency): LE = 1.4(−pIC50)/HAC; for LLE (lipophilic ligand efficiency): LLE = pIC50 – clogP; for LE / LLE: supplementary CSV
[10] = Notum IC50, OPTS substrate, 10-point curves 30 nM to 1 mM, mean ± s.d. of N = 2–4 unless stated, Table 1 and figures
[11] = pIC50, Table 1, Notum OPTS assay

IC50 [8, 10] [µM]	LE (ligand efficiency) [9]	LLE (lipophilic ligand efficiency) [9]	LE [9]	LLE [9]	Structure (SMILES)	further results
–	–	–	–	–	Oc1nnc(-c2ccc(Cl)c(C(F)(F)F)c2)o1 [7a]	brain penetration [1]: only partial; plasma exposure [1]: good
–	–	–	–	–	OCc1cn(-c2ccc(Cl)c(C(F)(F)F)c2)nn1 [7b, (1-(4-Chloro-3-(trifluoromethyl)phenyl)-1H-1,2,3-triazol-4-yl)methanol]	EC50 [2]: 1600 ± 1200 nM
–	–	–	–	–	FC(F)(F)c1c(Cl)ccc(-n2ccnn2)c1Cl [7d]	EC50 [3]: 110 ± 100 nM
< 10	–	–	–	–	OCc1cn(-c2ccc(Cl)c(Cl)c2)nn1 [compound 7]	aqueous solubility [4]: 100 mg/mL (≈ 410 mM); MLM Cli [5]: 88 µL/min/mg protein; HLM Cli [6]: 12 µL/min/mg protein; Papp AB ([7]; MDCK-MDR1, AB): 57 × 10^–6 cm/s; Papp BA ([7]; MDCK-MDR1, BA): 59 × 10^–6 cm/s
68 ± 5.4	0.45	3.2	0.45	3.2	COCC(=O)NCc1ccccc1 [compound 41]	–
87 ± 47	0.34	2.7	0.34	2.7	COc1ccc(CNC(=O)[C@@H]2CCCO2)cc1 [compound 43]	–
410 ± 63	0.34	2.0	0.34	2	COC(=O)COc1ccc(C#N)cc1 [compound 44]	–
720 ± 18	0.24	1.2	0.24	1.2	O=C(NCCc1ccc(O)cc1)c1ccccn1 [compound 45]	–
380 ± 130	0.32	0.7	0.32	0.7	COc1cc(-c2ccccc2)nc(N)n1 [compound 46]	–
550 ± 93	0.33	1.8	0.33	1.8	Cn1nc(O)cc1Nc1ccccc1 [compound 49]	IC50 [8, 11]: 631 µM
36 ± 2.7	0.37	1.1	0.37	1.1	Cc1ccc(C)c(OC(=O)c2ccncc2)c1 [compound 50]	–
980 ± 17	0.25	2.7	0.25	2.7	CCc1noc(C)c1C(=O)Nc1cc(C)on1 [compound 53]	–
78 ± 8.2	0.38	2.0	0.38	2	Cc1ccccc1CNc1nnnn1C [compound 54]	–
260 ± 51	0.33	1.5	0.33	1.5	CCn1c(NC(C)=O)nc2ccccc21 [compound 57]	IC50 [8, 11]: 316 µM
390 ± 53	0.38	1.4	0.38	1.4	CC(=O)Nc1ccc2nsnc2c1 [compound 58]	–

Structure (SMILES)	IC50 [8, 10] [µM]	LE (ligand efficiency) [9]	LLE (lipophilic ligand efficiency) [9]	LE [9]	LLE [9]	further results
C[C@@H](Oc1ccc(-c2ccccc2)cc1)C(=O)O [compound 55]	200 ± 76	0.29	0.2	0.29	0.2	–
